From ChEMBL document CHEMBL4033668, “Inhibitors of cytochrome P450 (CYP) 1B1” (Eur J Med Chem, 2017) come the findings set out here.

In general, IC50 refers to the concentration that gives 50% inhibition. By Ki is commonly meant the dissociation constant of the complex between target and ligand, obtained from inhibition or displacement.

Molecules are shown by their SMILES.

The target in assay [1] is T1, Cytochrome P450 1A2 (Homo sapiens, UniProt P05177).
T1 sequence (P05177 whole entry): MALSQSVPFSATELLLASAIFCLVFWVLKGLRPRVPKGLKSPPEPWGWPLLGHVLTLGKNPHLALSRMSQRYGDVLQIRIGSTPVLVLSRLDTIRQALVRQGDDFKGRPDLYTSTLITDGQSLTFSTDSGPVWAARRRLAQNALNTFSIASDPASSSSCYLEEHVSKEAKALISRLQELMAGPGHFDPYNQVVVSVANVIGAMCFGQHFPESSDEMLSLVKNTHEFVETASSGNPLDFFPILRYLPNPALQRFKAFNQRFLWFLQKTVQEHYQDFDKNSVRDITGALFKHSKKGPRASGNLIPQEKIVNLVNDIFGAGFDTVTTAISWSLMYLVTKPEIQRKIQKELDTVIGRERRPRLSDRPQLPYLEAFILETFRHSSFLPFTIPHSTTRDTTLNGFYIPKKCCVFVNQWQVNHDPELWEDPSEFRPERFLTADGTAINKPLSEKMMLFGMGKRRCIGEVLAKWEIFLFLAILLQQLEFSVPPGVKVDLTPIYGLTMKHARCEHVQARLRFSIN
Briefly: Inhibition of […] CYP1A2 expressed in Escherichia coli DH5alpha coexpressing NADPH-P450 reductase using 7-ethoxyresorufin O-deethylation as substrate in presence of NADPH by UV absorbance analysis. Type of assay: ADME.

In assay [2] the target is T2, Cytochrome P450 1A1 (Homo sapiens, UniProt P04798).
T2 sequence (P04798 whole entry): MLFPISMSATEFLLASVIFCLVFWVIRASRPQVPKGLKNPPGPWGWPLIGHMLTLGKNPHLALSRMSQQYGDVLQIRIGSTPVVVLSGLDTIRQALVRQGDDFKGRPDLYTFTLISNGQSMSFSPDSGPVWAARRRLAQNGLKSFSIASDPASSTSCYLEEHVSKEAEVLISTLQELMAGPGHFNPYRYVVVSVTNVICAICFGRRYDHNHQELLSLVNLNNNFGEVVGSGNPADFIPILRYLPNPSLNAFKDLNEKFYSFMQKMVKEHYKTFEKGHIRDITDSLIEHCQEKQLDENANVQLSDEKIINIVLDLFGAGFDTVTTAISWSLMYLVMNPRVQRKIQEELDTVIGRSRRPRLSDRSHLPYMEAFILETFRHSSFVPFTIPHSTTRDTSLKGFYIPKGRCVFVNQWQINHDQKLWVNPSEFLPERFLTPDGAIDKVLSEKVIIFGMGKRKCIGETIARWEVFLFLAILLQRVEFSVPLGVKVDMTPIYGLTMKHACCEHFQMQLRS
Description: Inhibition of […] CYP1A1 expressed in Escherichia coli DH5alpha coexpressing NADPH-P450 reductase using 7-ethoxyresorufin O-deethylation as substrate in presence of NADPH by UV absorbance analysis. Type of assay: ADME.

For assay [3], the target named is T3, Cytochrome P450 1B1 (Homo sapiens, UniProt Q16678).
T3 sequence (Q16678 whole entry): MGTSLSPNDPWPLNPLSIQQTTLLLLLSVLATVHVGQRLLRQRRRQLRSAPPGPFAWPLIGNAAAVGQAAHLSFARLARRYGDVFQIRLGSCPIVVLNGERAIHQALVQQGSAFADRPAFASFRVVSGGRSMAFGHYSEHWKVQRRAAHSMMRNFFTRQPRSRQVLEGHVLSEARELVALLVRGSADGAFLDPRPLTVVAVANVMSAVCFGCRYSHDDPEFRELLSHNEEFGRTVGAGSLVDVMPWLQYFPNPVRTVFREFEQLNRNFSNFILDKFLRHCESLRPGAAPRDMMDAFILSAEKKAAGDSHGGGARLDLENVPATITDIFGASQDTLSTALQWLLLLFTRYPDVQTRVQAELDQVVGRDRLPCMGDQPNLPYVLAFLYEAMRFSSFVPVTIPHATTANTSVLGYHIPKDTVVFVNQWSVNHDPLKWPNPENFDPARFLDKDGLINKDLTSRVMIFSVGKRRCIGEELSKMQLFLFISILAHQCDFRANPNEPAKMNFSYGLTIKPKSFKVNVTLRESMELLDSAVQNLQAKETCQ
Briefly: Inhibition of […] CYP1B1 expressed in Escherichia coli DH5alpha coexpressing NADPH-P450 reductase using 7-ethoxyresorufin O-deethylation as substrate in presence of NADPH by UV absorbance analysis.

Assay [4] can be described thus: Competitive inhibition of […] CYP1 expressed in supersomes coexpressing NADPH-CYP reductase using 7-Ethoxyresorufin as substrate measured every 5 mins for 30 mins in presence of NADPH by fluorescence assay. Type of assay: ADME. Background: Liver microsomes are vesicles of endoplasmic reticulum, rich in cytochrome P450 enzymes.
Assay [5] is described as follows: Selectivity ratio of IC50 for CYP1A1 in TCDD-exposed human MCF-7 cells to IC50 for CYP1B1 in TCDD-exposed human MCF-7 cells.
The target of assay [6] is T2, Cytochrome P450 1A1. Description: Inhibition of CYP1A1 in TCDD-exposed human MCF-7 cells using ethoxyresorufin as substrate after 20 mins in presence of NADPH by spectrofluorimetric analysis. Type of assay: ADME.
The target in assay [7] is T3, Cytochrome P450 1B1. Description: Inhibition of CYP1B1 in TCDD-exposed human MCF-7 cells using ethoxyresorufin as substrate after 20 mins in presence of NADPH by spectrofluorimetric analysis.
For assay [8], the target named is T3, Cytochrome P450 1B1. Description: Inhibition of CYP1B1 in TCDD-exposed human MCF-7 cells using ethoxyresorufin as substrate after 20 mins in presence of NADPH by Lineweaver-Burk linear regression plot analysis.
The target in assay [9] is T2, Cytochrome P450 1A1. Description: Competitive inhibition of […] CYP1A1 expressed in supersomes coexpressing NADPH-CYP reductase using 7-Ethoxyresorufin as substrate measured every 5 mins for 30 mins in presence of NADPH by fluorescence assay. Type of assay: ADME. The conditions noted are these: read-out: Ki.
The target of assay [10] is T3, Cytochrome P450 1B1. Description: Competitive inhibition of […] CYP1B1 expressed in supersomes coexpressing NADPH-CYP reductase using 7-Ethoxyresorufin as substrate measured every 5 mins for 30 mins in presence of NADPH by fluorescence assay.
Assay [11] has as its target T1, Cytochrome P450 1A2. Description: Competitive inhibition of […] CYP1A2 expressed in supersomes coexpressing NADPH-CYP reductase using 7-Ethoxyresorufin as substrate measured every 5 mins for 30 mins in presence of NADPH by fluorescence assay. Type of assay: ADME.
Assay [12] addresses T2, Cytochrome P450 1A1. Briefly: Mixed type inhibition of human hepatic microsomes CYP1A1 expressed in supersomes coexpressing NADPH-cytochrome P450 reductase using 7-Ethoxyresorufin as substrate measured every 30 secs for 3 mins in presence of NADPH by spectrofluorometric analysis. Type of assay: ADME.
Assay [13] concerns the target T3, Cytochrome P450 1B1. Description: Mixed type inhibition of human hepatic microsomes CYP1B1 expressed in supersomes coexpressing NADPH-cytochrome P450 reductase using 7-Ethoxyresorufin as substrate measured every 30 secs for 3 mins in presence of NADPH by spectrofluorometric analysis.
In assay [14] the target is T3, Cytochrome P450 1B1. Briefly: Inhibition of recombinant human CYP1B1 expressed in supersomes using ethoxyresorufin as substrate after 20 mins in presence of NADPH by fluorescence assay.
For assay [15], the target named is T1, Cytochrome P450 1A2. Briefly: Inhibition of recombinant human CYP1A2 expressed in Escherichia coli DH5alpha using ethoxyresorufin as substrate preincubated for 3 mins followed by NADPH addition measured after 10 mins by spectrofluorometric assay. Type of assay: ADME.
Assay [16] addresses T3, Cytochrome P450 1B1. Description: Inhibition of human CYP1B1 expressed in Escherichia coli DH5alpha coexpressing human NADPH-P450 reductase using 4-estradiol as substrate in presence of NADP+ by HPLC analysis.
In assay [17] the target is T3, Cytochrome P450 1B1. Description: Inhibition of human CYP1B1 expressed in Escherichia coli DH5alpha coexpressing human NADPH-P450 reductase using 4-estradiol as substrate in presence of NADP+ by Michaelis-Menten plot analysis.

`O=c1c2ccccc2nc2n1CCc1c-2[nH]c2ccc(O)cc12`: the figures for the IC50 in assay [1], in [2] and in assay [3] were 2570 nM, 2560 nM and 90 nM, respectively.
Turning to `CCCCCc1cc(O)c2c(c1)OC(C)(C)[C@@H]1CCC(C)=C[C@@H]21` [DRONABINOL], in assay [4], the inhibitory constant (Ki) lay in the range of 2470 to 7540 nM.
As for `Br.Cc1ccc(C(=O)Cn2c3c(sc2=N)CCCC3)cc1`, the “Ratio IC50” value in [5] is 73. Moreover, the IC50 in assay [6] is 1500 nM; in assay [7], 20.6 nM. Further, the Ki in assay [8] was 4.38 nM.
Regarding `CCCCCc1cc(O)c2c(c1)OC(C)(C)c1ccc(C)cc1-2` [CANNABINOL], the results for the Ki in assay [9], in [10] and in assay [11] were 541 nM, 148 nM and 79 nM, respectively.
Regarding `COc1ccc2[nH]cc(CCNC(C)=O)c2c1` [MELATONIN], the Ki in [12] amounted to 59000 nM; in [13], 14000 nM.
For the compound `C=C(C)C1CC=C(CO)CC1` (configuration not stated), the Ki in assay [14] amounted to 2000 nM.
As to `COc1cc(/C=C/c2ccc(OC)cc2OC)cc(OC)c1`, the IC50 in assay [15] came to 3000 nM.
As for `COc1ccc2cc3[n+](cc2c1OC)CCc1cc2c(cc1-3)OCO2` [BERBERINE], the IC50 in assay [16] turned out to be 330 nM. In addition, in assay [17], the inhibition constant (Ki) came to 44 nM.
